Measurements taken from patent US20150352131A1, “Compositions and Methods for the Prevention and Treatment of Osteolysis and Osteoporosis” (RHODE ISLAND HOSPITAL, priority 2013, published 2015).
Entries after “also recorded” stand apart in the source; their conditions may differ. Where two headings read alike, the source gives them in different places.

Columns and labels:
[1] = system: prostate cancer; settings: delivered as loaded nanoparticles conjugated to T cells; cited from earlier work
[2] = mice given NSC-87877, cited from earlier work
[3] = system: osteoclasts; assay: Pit assay, osteoclast-mediated bone resorption on dentin slices; format: cell-based, mice
Description: TRAP staining was used to identify multinucleated osteoclasts in osteoclastogenic cell cultures or tibia section. Briefly, tibia from control and Shp2 mutant mice were fixed in 4% paraformaldehyde overnight and then decalcified in EDTA solution (14%) till bone tissue was soft. The specimens were then dehydrated according standard procedures and embedded for sectioning. TRAP^+ multinucleated osteoclasts (>3 nuclei) were quantified with the use of a Nikon digital microscope. Osteoclast-mediated bone resorptive activity was quantified using the pit assay (Xu D, et al. (2004) Biochemical Journal 383(Pt 2):219-225). Ethanol-sterilized slices of bovine bone were disposed in individual wells of a 48 well/plate with 1 mL osteoclast culture medium containing 2.5×10^4 BM macrophages (BMM) per well. After 8 to 10 days, all cellular components were removed from bone slices with a brief (10 minute) treatment with 5% sodium hypochlorite. […] The effect of Shp2 inhibition on osteoclast-mediated bone resorption was also studied in order to further test whether pharmacological inhibition of Shp2 could serve as a treatment modality. BMM were cultured on dentin slices in osteoclast medium and in the presence or absence of Shp2 inhibitor NSC-87877 (50 μM) (FIGS. 10A-B).

[4] = system: BM-derived pre-osteoclast cultures (wild type bone marrow cells); assay: TRAP staining of multinucleated osteoclasts in ex vivo osteoclast culture; format: cell-based, mice; settings: FIG. 5: NSC-87877 50 nM, Aldronates 25 nM, or combination
Procedure: Whole bone marrow (BM) was flushed from the explanted femurs and tibiae of euthanized mice with DMEM (Invitrogen, N.Y), and centrifuged at 1,500 rpm for 5 minutes. The pelletized cells were resuspended in red blood cell (RBC) lysis buffer, re-centrifuged at 1,500 rpm for 5 minutes, and then cultured in macrophage medium (DMEM supplemented with 10% FBS, 1% penicillin/streptomycin, and 10 ng/mL M-CSF) at 37° C. and 5% CO2 for 3 days (Tanaka S, et al. (1993) J Clin Invest 91(1):257-63) in either 100 mm tissue culture dishes, 4-well or 8-well chamber slides, or 48-well or 96-well tissue culture plates. The medium was changed every other day. To induce osteoclastogenic differentiation, BM cells cultured for 3 days in macrophage medium were further cultured for 5-7 days in osteoclast differentiation medium (DMEM supplemented with 10% FCS, 10 ng/mL M-CSF, and 100 ng/mL RANKL) (McHugh K P, et al. (2000) J Clin Invest 105(4):433-40; Zou W, et al. (2008) Mol Cell 31(3):422-31). These BM-derived osteoclasts were primarily used for the various assays in this study. […] TRAP^+ multinucleated osteoclasts (>3 nuclei) were quantified with the use of a Nikon digital microscope. Osteoclast-mediated bone resorptive activity was quantified using the pit assay (Xu D, et al. (2004) Biochemical Journal 383(Pt 2):219-225). […]

[5] = system: osteoclastogenic genes c-Fos, Nfatc1, MMP9, Trap, and Ctsk in bone marrow derived macrophages (BMM); assay: qRT-PCR of osteoclastogenic gene expression in BMM induced by polyethylene or titanium particles; format: cell-based, mice; settings: BMM with PeP or TiP, NSC87877 50 uM, 5 days of culture, normalized to GAPDH
Procedure: The average size of PeP and TiP is about […] in diameter (FIGS. 8A-B), within the range of orthopedic implant debris size; these particles can be efficiently engulfed by BMM and trigger their osteoclastogenic differentiation (FIGS. 8C-D). 5×10^5 BMM were cultured in BMM medium containing about 2×10^6 of PeP or TiP in the presence or absence of Shp2 inhibitor NSC87877 (50 uM). BMM cultured in osteoclast media (DMEM supplemented with 10% FCS, 10 ng/mL M-CSF, and 100 ng/mL RANKL) were used as a positive control. Total RNA was extracted from BMM after 5 days of culture using RNeasy mini kit (Qiagen, Valencia, Calif.). cDNA was synthesized using 1 μg total RNA with iSCRIPT™ cDNA Synthesis Kit (Bio-Rad, Hercules, Calif.) and q-PCR was performed with RT2SYBR® Green qPCR kit (Bio-Rad) on a CFX384 real-time PCR machine. Osteoclastogenic gene expressions in BMM were measured and normalized to Glyceraldehyde 3-phosphate dehydrogenase (GAPDH); their levels were then compared between NSC87877 treated and untreated groups.

[6] = orthopedic implant; cited from earlier work

SMILES | tumor burden [1] | toxicity in vivo (death versus control-treated or untreated mice) [2] | toxicity in vivo (death versus control-treated or untreated mice) ([2]; listed as NSC 87877) | osteoclast-mediated bone resorption (pits formed on dentin slices) ([3]; BMM from wild type mice in osteoclast medium, NSC-87877 50 μM, 10 days) | ability to resorb bone matrix (pits on dentin slices) ([3]; co-cultured 10 days on dentin slices, FIG. 5: NSC-87877 50 nM, Aldronates 25 nM, or combination) | number of osteoclasts (formation of TRAP+ multinucleated osteoclasts) [4] | expression of osteoclastogenic marker genes [5] | bone ongrowth and shear strength [6]
O=S(=O)(O)c1ccc2cc(/N=N/c3cc(S(=O)(=O)O)c4cccnc4c3O)ccc2c1 [NSC87877] | effective in reducing tumor burden | did not die significantly sooner | lack of toxicity | formed only a few small pits; also recorded: markedly reduced | inhibited | inhibited | significantly inhibited | –
NCCCC(O)(P(=O)(O)O)P(=O)(O)O [Alendronate] | – | – | – | – | – | – | – | increase
